Measured values from ChEMBL document CHEMBL2073820, “Rifamycin SV and rifampicin exhibit differential inhibition of the hepatic rat organic anion transporting polypeptides, Oatp1 and Oatp2” (Hepatology, 2000).
pKi: −log10 of the molar value.

Key:
[1] = target: T1, Solute carrier organic anion transporter family member 1A4 (Rattus norvegicus, UniProt O35913); experiment: (§1) TP_TRANSPORTER: inhibition of E217betaG uptake in Xenopus laevis oocytes; type: functional, cell-based, Oocyte
T1 sequence (O35913 whole entry): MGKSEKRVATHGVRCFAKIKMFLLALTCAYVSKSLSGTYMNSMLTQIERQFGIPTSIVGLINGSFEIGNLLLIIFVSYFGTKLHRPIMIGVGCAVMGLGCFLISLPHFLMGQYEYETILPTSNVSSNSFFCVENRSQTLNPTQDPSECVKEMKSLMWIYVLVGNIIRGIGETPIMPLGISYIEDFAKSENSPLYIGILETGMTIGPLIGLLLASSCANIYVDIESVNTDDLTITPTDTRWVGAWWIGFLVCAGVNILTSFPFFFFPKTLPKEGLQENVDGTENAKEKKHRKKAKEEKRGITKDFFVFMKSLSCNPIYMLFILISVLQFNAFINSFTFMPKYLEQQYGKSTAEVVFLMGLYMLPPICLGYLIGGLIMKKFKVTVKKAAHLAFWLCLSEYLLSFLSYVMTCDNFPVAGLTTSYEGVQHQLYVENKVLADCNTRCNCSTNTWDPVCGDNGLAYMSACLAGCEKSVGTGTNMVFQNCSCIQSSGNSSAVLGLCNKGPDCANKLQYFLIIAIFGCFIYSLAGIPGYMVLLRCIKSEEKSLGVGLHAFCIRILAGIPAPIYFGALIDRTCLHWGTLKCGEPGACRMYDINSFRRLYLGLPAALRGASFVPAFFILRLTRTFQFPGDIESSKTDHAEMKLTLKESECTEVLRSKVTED

[2] = target: T2, Solute carrier organic anion transporter family member 1A1 (Rattus norvegicus, UniProt P46720); experiment: as §1; type: functional, cell-based, Oocyte
T2 sequence (P46720 whole entry): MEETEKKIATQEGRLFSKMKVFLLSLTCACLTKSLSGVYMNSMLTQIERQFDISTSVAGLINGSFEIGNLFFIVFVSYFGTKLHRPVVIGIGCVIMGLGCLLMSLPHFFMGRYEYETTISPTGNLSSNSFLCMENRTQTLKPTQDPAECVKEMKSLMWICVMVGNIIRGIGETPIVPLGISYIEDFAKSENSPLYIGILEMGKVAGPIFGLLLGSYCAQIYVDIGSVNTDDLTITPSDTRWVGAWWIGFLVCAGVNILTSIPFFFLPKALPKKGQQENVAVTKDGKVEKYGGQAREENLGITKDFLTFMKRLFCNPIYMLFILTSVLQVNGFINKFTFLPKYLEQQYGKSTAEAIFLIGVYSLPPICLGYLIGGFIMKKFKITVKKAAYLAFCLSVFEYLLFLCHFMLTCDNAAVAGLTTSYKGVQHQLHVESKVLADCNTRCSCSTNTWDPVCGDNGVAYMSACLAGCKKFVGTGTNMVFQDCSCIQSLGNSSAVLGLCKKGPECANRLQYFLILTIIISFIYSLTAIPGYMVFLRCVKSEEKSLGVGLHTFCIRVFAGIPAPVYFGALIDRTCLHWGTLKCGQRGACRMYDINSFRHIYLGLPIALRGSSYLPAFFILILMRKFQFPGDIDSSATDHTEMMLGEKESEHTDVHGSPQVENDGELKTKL

pKi [1] | pKi [2] | SMILES
5.85 | – | CO[C@H]1/C=C/O[C@@]2(C)Oc3c(C)c(O)c4c(O)c(c(/C=N/N5CCN(C)CC5)c(O)c4c3C2=O)NC(=O)/C(C)=C\C=C\[C@H](C)[C@H](O)[C@@H](C)[C@@H](O)[C@@H](C)[C@H](OC(C)=O)[C@@H]1C [RIFAMPIN]
5.14 | 5.18 | CO[C@H]1/C=C/O[C@@]2(C)Oc3c(C)c(O)c4c(O)c(cc(O)c4c3C2=O)NC(=O)/C(C)=C\C=C\[C@H](C)[C@H](O)[C@@H](C)[C@@H](O)[C@@H](C)[C@H](OC(C)=O)[C@@H]1C [RIFAMYCIN]
